From patent US10961238B2, “Modulators of hedgehog (Hh) signaling pathway” (E-THERAPEUTICS PLC, priority 2016, dated 2021)
Read-outs that look alike come from different tables or passages of the source.

What was measured:
[1] = test system: SMO L416F mutant cell line; assay: C3H10T1/2 cell differentiation assay in SMO L416F mutant cell line versus wild type; assay type: cell-based, mouse; conditions: for Fold reduction in potency in SMO L416F mutant cell line: SMO L416F mutant cell line compared to the wild type, C3H10T1/2 cell differentiation assay
Excerpt: FIG. 1 is a graph of the percent inhibition of C3H10T1/2 cell differentiation of vismodegib compared to compound of the invention (compound number 174), in wild type versus SMO L416F mutant cell line.
Loss of Potency in C3H10T1/2 Cell Differentiation Assay Associated with Presence of SMO L416F Mutation.
Table 3 below details the number of fold reduction in potency of a range of compounds of the invention when applied to the SMO L416F mutant cell line compared to the wild type. SMO mutation has been described in the literature (Pricl, Sabrina, et al.) as a key mutation causative of vismodegib resistance in the clinic by interfering with drug binding.

C3H10T1/2 cells = assay: C3H assay: differentiation of C3H10T1/2 cells by mSHH, measurement of alkaline phosphatase; assay type: cell-based, mouse
SMO = molecular target: T1, SMO (Homo sapiens, UniProt Q99835); assay: Smoothened (SMO) binding fluorescence polarisation assay (BODIPY-cyclopamine competition); conditions: SMO binding FP assay versus C3H10T1/2 cellular assay
T1 construct: expressed in transfected cells; host or cells: HEK293
Outline: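 Competition fluorescence polarisation with 3 nM BODIPY-cyclopamine on membranes from SMO-overexpressing HEK293 cells, 25 mM HEPES pH7.4 buffer, 0.3% DMSO. Seven-point compound dilutions; read after 24 hours at room temperature in the dark.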

[2] = Mus musculus, C3H 10T1/2, C3H10T1/2 cells stimulated with mSHH for 72 hours, alkaline phosphatase activity, read-out: IC50 Ranges

T1 sequence (Q99835 28-787): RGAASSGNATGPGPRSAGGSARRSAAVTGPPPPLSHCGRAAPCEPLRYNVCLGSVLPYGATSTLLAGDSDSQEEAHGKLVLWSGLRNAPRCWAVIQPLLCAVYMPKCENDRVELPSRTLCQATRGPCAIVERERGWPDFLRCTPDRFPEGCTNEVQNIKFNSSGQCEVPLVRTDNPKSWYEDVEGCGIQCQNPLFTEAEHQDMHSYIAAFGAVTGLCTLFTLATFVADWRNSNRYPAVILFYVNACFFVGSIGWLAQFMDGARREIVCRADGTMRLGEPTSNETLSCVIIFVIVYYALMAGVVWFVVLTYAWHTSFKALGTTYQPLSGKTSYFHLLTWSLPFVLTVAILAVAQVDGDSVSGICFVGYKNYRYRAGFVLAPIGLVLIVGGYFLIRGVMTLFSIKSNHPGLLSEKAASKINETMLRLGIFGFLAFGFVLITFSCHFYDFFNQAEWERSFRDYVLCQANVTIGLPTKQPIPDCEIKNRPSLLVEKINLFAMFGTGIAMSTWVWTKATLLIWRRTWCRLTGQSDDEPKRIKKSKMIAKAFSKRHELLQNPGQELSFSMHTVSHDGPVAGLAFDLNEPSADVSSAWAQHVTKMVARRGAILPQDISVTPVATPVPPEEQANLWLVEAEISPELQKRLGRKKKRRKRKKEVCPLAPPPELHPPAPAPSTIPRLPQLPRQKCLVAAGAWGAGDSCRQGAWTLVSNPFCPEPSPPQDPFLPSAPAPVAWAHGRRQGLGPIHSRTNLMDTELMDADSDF

SMILES | Fold reduction in potency in SMO L416F mutant cell line [1] | IC50 (C3H10T1/2 cells; [2]) [µM] | Ratio of potency in SMO binding assay to potency in C3H10T1/2 cellular assay (SMO) | IC50 (C3H10T1/2 cells; C3H10T1/2 cells stimulated with mSHH for 72 hours, alkaline phosphatase activity, read-out: IC50 Ranges) [µM] | percent inhibition of C3H10T1/2 cell differentiation ([1]; FIG. 1, compared to vismodegib, wild type versus SMO L416F mutant cell line) | IC50 (C3H10T1/2 cells; Mus musculus, C3H 10T1/2, reference compounds run in the C3H assay, read-out: mean IC50) [µM]
O=C(N1CCOCC1)N1CC(S(=O)(=O)N2CCC(c3c[nH]c4ncccc34)CC2)C1 [Compound 88, morpholin-4-yl-[3-[4-(1H-pyrrolo[2,3-b]pyridin-3-yl)piperidin-1-yl]sulfonylaze-tidin-1-yl]methanone] | 27 | 0.1 to 1 | – | – | – | –
CC(C)(C)NC(=O)N1CCC(S(=O)(=O)N2CCC(c3c[nH]c4ncccc34)CC2)CC1 [Compound 107, N-tert-butyl-4-[4-(1H-pyrrolo[2,3-b]pyridin-3-yl)piperidin-1-yl]sulfonylpiper-idine-1-carboxamide] | 56 | 0.01 to 0.1 | 20 | – | – | –
Cc1noc(C)c1NC(=O)N1CC(S(=O)(=O)N2CCC(c3c[nH]c4ncccc34)CC2)C1 [Compound 120, N-(3,5-dimethyl-1,2-oxazol-4-yl)-3-[4-(1H-pyrrolo[2,3-b]pyridin-3-yl)piperidin-1-yl]sulfonylaze-tidine-1-carboxamide] | 38 | 0.01 to 0.1 | – | – | – | –
CC(C)(C)OC(=O)N1CC(S(=O)(=O)N2CCC(c3cnc4occc4c3)CC2)C1 [Compound 124, tert-butyl 3-(4-furo[2,3-b]pyridin-5-ylpiperidin-1-yl)sulfonylaze-tidine-1-carboxylate] | 64 | 0.01 to 0.1 | 82 | – | – | –
CC(C)(C)CN1CC(S(=O)(=O)N2CCC(c3c[nH]c4ncccc34)CC2)C1 [Compound 143, 3-[1-[1-(2,2-Dimethylpropyl)azetidin-3-yl]sulfonyl-4-piperidyl]-1H-pyrrolo[2,3-b]pyridine] | 21 | 0.1 to 1 | >17 | – | – | –
O=C(OCC1CCC1)N1CC(S(=O)(=O)N2CCC(c3cn(C(=O)OCC4CCC4)c4ncccc34)CC2)C1 [Compound 154, cyclobutylmethyl 3-[1-[1-(cyclobutylmethoxycarbonyl)azetidin-3-yl]sulfonylpiper-idin-4-yl]pyrrolo[2,3-b] pyridine-1-carboxylate] | 28 | 0.01 to 0.1 | 66 | – | – | –
Cc1noc(C)c1OC(=O)N1CC(S(=O)(=O)N2CCC(c3c[nH]c4ncccc34)CC2)C1 [Compound 160, (3,5-dimethyl-1,2-oxazol-4-yl) 3-[4-(1H-pyrrolo[2,3-b]pyridin-3-yl)piperidin-1-yl]sulfonylaze-tidine-1-carboxylate] | 29 | < 0.01 | – | – | – | –
CC(C)[C@H]1CC[C@H](C)C[C@@H]1OC(=O)N1CC(S(=O)(=O)N2CCC(c3c[nH]c4ncccc34)CC2)C1 [Compound 166, [(1S,2R,5S)-5-methyl-2-propan-2-ylcyclohexyl] 3-[4-(1H-pyrrolo[2,3-b]pyridin-3-yl)piperidin-1-yl]sulfonylaze-tidine-1-carboxylate] | 51 | < 0.01 | – | – | – | –
O=C(OCC1CCCCC1)N1CC(S(=O)(=O)N2CCC(c3c[nH]c4ncccc34)CC2)C1 [Compound 168, cyclohexylmethyl 3-[4-(1H-pyrrolo[2,3-b]pyridin-3-yl)piperidin-1-yl]sulfonylaze-tidine-1-carboxylate] | 33 | 0.01 to 0.1 | – | – | – | –
O=C(NC12CC3CC(CC(C3)C1)C2)N1CC(S(=O)(=O)N2CCC(c3c[nH]c4ncccc34)CC2)C1 [Compound 171, N-(1-adamantyl)-3-[4-(1H-pyrrolo [2,3-b]pyridin-3-yl)piperidin-1-yl]sulfonylaze-tidine-1-carboxamide] | 38 | – | – | < 0.01 | – | –
CC(C)(C)NC(=S)N1CC(S(=O)(=O)N2CCC(c3c[nH]c4ncccc34)CC2)C1 [Compound 174, N-tert-butyl-3-[4-(1H-pyrrolo[2,3-b]pyridin-3-yl)piperidin-1-yl]sulfonylaze-tidine-1-carbothioamide] | – | 0.01 to 0.1 | – | – | a lower concentration of compound 174 is required to achieve the same percent inhibition of differentiation | –
CC(C)(C)CC(C)(C)NC(=O)N1CC(S(=O)(=O)N2CCC(c3c[nH]c4ncccc34)CC2)C1 [Compound 175, 3-[4-(1H-pyrrolo[2,3-b]pyridin-3-yl)piperidin-1-yl]sulfonyl-N-(2,4,4-trimethylpentan-2-yl)azetidine-1-carboxamide] | 40 | < 0.01 | – | – | – | –
CC(C)(C)OC(=O)N1CC(S(=O)(=O)N2CCC(c3csc4ncccc34)CC2)C1 [Compound 177, tert-butyl 3-(4-thieno [2,3-b]pyridin-3-ylpiperidin-1-yl)sulfonylaze-tidine-1-carboxylate] | 37 | 0.01 to 0.1 | – | – | – | –
O=C(OCc1ccccc1C(F)(F)F)N1CC(S(=O)(=O)N2CCC(c3c[nH]c4ncccc34)CC2)C1 [Compound 216, [2-(trifluoromethyl)phenyl]methyl 3-[4-(1H-pyrrolo[2,3-b]pyridin-3-yl)piperidin-1-yl]sulfonylaze-tidine-1-carboxylate] | 47 | < 0.01 | – | – | – | –
COc1ccccc1OC(=O)N1CC(S(=O)(=O)N2CCC(c3c[nH]c4ncccc34)CC2)C1 [Compound 217, (2-methoxyphenyl) 3-[4-(1H-pyrrolo[2,3-b]pyridin-3-yl)piperidin-1-yl]sulfonylaze-tidine-1-carboxylate] | 34 | < 0.01 | – | – | – | –
Cc1ccnc2[nH]cc(C3CCN(S(=O)(=O)C4CN(C(=O)OC(C)(C)C)C4)CC3)c12 [Compound 223, tert-butyl 3-[4-(4-methyl-1H-pyrrolo[2,3-b]pyridin-3-yl)piperidin-1-yl]sulfonylaze-tidine-1-carboxylate] | 26 | 0.01 to 0.1 | 21 | – | – | –
CC(C)(C)OC(=O)N1CCCC(S(=O)(=O)N2CCC(c3c[nH]c4ncccc34)CC2)C1 (centres unmarked) [Compound 248, tert-butyl 3-[4-(1H-pyrrolo[2,3-b]pyridin-3-yl)piperidin-1-yl]sulfonylpiper-idine-1-carboxylate] | 10 | 0.1 to 1 | – | – | – | –
CC(C)[C@@H](CO)NC(=O)N1CC(S(=O)(=O)N2CCC(c3c[nH]c4ncccc34)CC2)C1 [Compound 250, N-[(2S)-1-hydroxy-3-methylbutan-2-yl]-3-[4-(1H-pyrrolo[2,3-b]pyridin-3-yl)piperidin-1-yl]sulfonylaze-tidine-1-carboxamide] | 29 | 0.01 to 0.1 | – | – | – | –
CS(=O)(=O)c1ccc(C(=O)Nc2ccc(Cl)c(-c3ccccn3)c2)c(Cl)c1 [Vismodegib, reference compound] | 202 | – | 2.2 | – | – | 0.0063
